# Experimental data: patent publication US20250262197A1, “COMPOUNDS AND METHODS FOR TREATING CHEMOTHERAPY-INDUCED PAIN” (priority 2024, published 2025)
# Like-named read-outs stand apart in the source and are kept apart here.
# Key:
# [1] = test system: oxaliplatin-induced peripheral neuropathy (cold allodynia); assay: Single oral administration in rat model of oxaliplatin-induced peripheral neuropathy, cold allodynia, paw immersion test; format: in vivo, male Sprague-Dawley rats; conditions: for percentage of variation of the paw withdrawal latency as compared to the vehicle-treated group: p<0.05
# Description: Cold allodynia is measured using the cryothermostat. See […]., “Effect of licofelone against mechanical hyperalgesia and cold allodynia in the rat model of incisional pain” Pharmacological Reports 2005(57):380-384. […] Cheng, X., et al., “Herbal Medicine AC591 Prevents oxaliplatin-Induced Peripheral Neuropathy in Animal Model and Cancer Patients” Frontiers in Pharmacology, 2017(8):344. This model is useful to evaluate the analgesic effects of new compounds on oxaliplatin-induced chronic painful symptoms. Cold allodynia was measured using the paw immersion test. See Singh, supra. In this test, the latency of hindpaw withdrawal was measured after immersion of the hindpaw in the cryothermostat with a temperature fixed at 10° C. (±0.5° C.). […] On day zero (D0), latency of hindpaw withdrawal was measured on both paws using the cryothermostat (Baseline pre-induction). […] Sixty minutes later, the latency of hindpaw withdrawal was measured on both paws using the cryothermostat. […] Doses are expressed in terms of free active substance. […] On D0, latency of hindpaw withdrawal was measured on both paws using the cryothermostat to obtain a preinduction baseline preinduction. […] Sixty minutes later, the latency of hindpaw withdrawal was measured on both paws using the cryothermostat. […] Rats were sacrificed at the end of the experiment by CO2 inhalation pending subsequent removal by a certified company. Results were expressed as: 1) the paw withdrawal latency (mean±s.e.m.) in seconds for each group, calculated from individual paw withdrawal latency; and 2) the percentage of variation of the paw withdrawal latency calculated from the mean value of the vehicle-treated group. To determine a statistical effect of the test substance and the reference substance, data were analyzed by a non-parametrical test. The significance level was p<0.05.
# [2] = test system: oxaliplatin-induced peripheral neuropathy (cold allodynia); assay: Repeated daily oral administration in rat model of oxaliplatin-induced peripheral neuropathy, cold allodynia, paw immersion test; format: in vivo, male Sprague-Dawley rats
# Description: Cold allodynia is measured using the cryothermostat. See Singh, V. P., Kulkarni, S. K., “Effect of licofelone against mechanical hyperalgesia and cold allodynia in the rat model of incisional pain” Pharmacological Reports 2005(57):380-384.
# Cold allodynia was measured using the paw immersion test. See Singh, supra. In this test, the latency of hindpaw withdrawal was measured after immersion of the hindpaw in the cryothermostat with a temperature fixed at 10° C. (±0.5° C.).
# Duloxetine was used as a reference to validate the assay.
# On D-3, latency of hindpaw withdrawal was measured on both paws using the cryothermostat to obtain a pre-induction and pre-treatment baseline. […] The first administration of vehicle and Compound A (groups 1 to 4) was done on D-3, then vehicle and Compound A were daily orally administered until D18 (n=22 repeated treatments). […] On the testing days (D4, D11, and D18), latency of hindpaw withdrawal was measured on both paws using the cryothermostat to obtain a baseline. Duloxetine was then orally administered at the same time as vehicle and Compound A at time T0. Sixty minutes later, the latency of hindpaw withdrawal was measured.
# Vehicle (10% Ethanol/40% PEG 400/15% Tween 80 in sterile water) and Compound A were orally administered at 3 ml/kg. Duloxetine was orally administered at 10 ml/kg. Dosing and testing were performed in a random order by a blinded experimenter with the exception of sham animals and the duloxetine-treated group. Doses are expressed in terms of free active substance.
# On D-3, the latency of hindpaw withdrawal was measured on both paws using the cryothermostat to obtain preinduction and pretreatment baselines.
# The first administration of vehicle and Compound A (group 1 to 4) was done on D-3 then vehicle and Compound A were daily orally administered until D18 (n=22 repeated treatments).
# On the testing days (D4, D11 and D18), latency of hindpaw withdrawal was measured on both paws using the cryothermostat (baseline) then duloxetine was orally administered at the same time than vehicle and Compound A (T0) and 60 minutes later, the latency of hindpaw withdrawal was measured.
# Results were expressed as: 1) the paw withdrawal latency (mean±s.e.m.) in seconds for each group, calculated from individual paw withdrawal latency; and 2) the percentage of variation of the paw withdrawal latency calculated from the mean value of the vehicle-treated group. To determine a statistical effect of the test substance and the reference substance, data were analyzed by a non-parametrical test. The significance level was p<0.05.
# [3] = test system: patients receiving oxaliplatin; conditions: cited from earlier work
compound,measurement,setting,value
"CC(C)C[C@](C)(N)COc1ccc(-c2ccnc(C(F)F)c2)nc1C(F)F [Compound A, ((S)-1-((2′,6-bis (difluoromethyl)-[2,4′-bipyridin]-5-yl)oxy)-2,4-dimethylpentan-2-aminiumdihydrogen phosphate]",increase in paw withdrawal latency as compared to the vehicle-treated group,"[1]; 10 mg/kg p.o., 60 minutes post-treatment",did not show a statistically significant increase
same,percentage of variation of the paw withdrawal latency as compared to the vehicle-treated group,"[1]; 30 mg/kg p.o., week 3, 60 minutes post-treatment",+35%
same,increase in the paw withdrawal latency as compared to the vehicle-treated group,[2]; daily oral administrations at 3 mg/kg,did not show a statistically significant increase
same,percentage of variation of the paw withdrawal latency as compared to the vehicle-treated group,"[2]; daily p.o. 30 mg/kg then 10 mg/kg, week 2, baseline (before the day's dose), ns",+25%
same,paw withdrawal latency (mean±s.e.m.),"[2]; daily p.o. 30 mg/kg then 10 mg/kg, week 3, 60 minutes after the administration, vehicle 6.7±0.6 sec, p<0.05",10.2 ± 0.8 s
same,percentage of variation of the paw withdrawal latency as compared to the vehicle-treated group,"[2]; daily p.o. 30 mg/kg then 10 mg/kg, week 3, baseline (before the day's dose), p<0.05",+43%
CNCC[C@H](Oc1cccc2ccccc12)c1cccs1 [Duloxetine],percentage of variation of the paw withdrawal latency as compared to the vehicle-treated group,"[1]; 100 mg/kg p.o., week 2, 60 minutes post-treatment",+42%
same,percentage of variation of the paw withdrawal latency as compared to the vehicle-treated group,"[1]; 100 mg/kg p.o., week 3, 60 minutes post-treatment",+74%
same,percentage of variation of the paw withdrawal latency as compared to the vehicle-treated group,"[2]; 100 mg/kg p.o. on testing day, week 2, 60 minutes after treatment, p<0.01",+33%
same,increase in the paw withdrawal latency as compared to the pre-drug baseline of the corresponding group,"[2]; 100 mg/kg p.o. on testing day, week 3, 60 minutes after treatment, not significant",+50%
same,paw withdrawal latency (mean±s.e.m.),"[2]; 100 mg/kg p.o., week 3, 60 minutes after treatment, pre-drug baseline of the group 6.3±0.3 sec",9.4 ± 0.7 s
O=C1[O][Pt]2([NH][C@@H]3CCCC[C@H]3[NH]2)[O]C1=O [oxaliplatin],prevalence of CIPN in patients receiving oxaliplatin,[3]; after one month of chemotherapy,approximately 68%
same,prevalence of CIPN in patients receiving oxaliplatin,[3]; at six months or more,30%
same,prevalence of CIPN in patients receiving oxaliplatin,[3]; at three months,60%
same,patients who took oxaliplatin reporting long-lasting neuropathic symptoms,[3]; chronic neuropathic pain,Approximately 60%
